Patent publication US8765254B2, “Polymeric membranes with human skin-like permeability properties and uses thereof” (EMD Millipore Corporation, priority 2010, dated 2014)
Like-named read-outs stand apart in the source and are kept apart here.

What was measured:
[1] = cited from earlier work
[2] = cited from earlier work; remark: listed apart in the source
[3] = cited from earlier work; remark: listed apart in the source
[4] = saturated donor solution in water, receptor pH 7.4, 37° C., 0-26 hrs; compared to human, rat, pig skin
[5] = cited from earlier work; remark: listed apart in the source
[6] = Transdermal diffusion, vertical Franz Cell, untreated membrane; type: in vitro ADME; details: saturated donor solution in water, Sorensen's buffer pH 7.4 receptor, 37° C., 0-26 hrs
Protocol: Conditions for HPLC analysis of flufenamic acid are as noted below: Column Used: Zorbax XDB C18, 3.9 mm×150 mm, 5 μm Mobile Phase Used: 90% Methanol+10% water containing 40 mM acetic acid; Detection wavelength: 280 nm.

[7] = Transdermal diffusion (cumulative flux) through rat skin samples; details: rat skin samples of different ages, or rat versus human skin
[8] = separate human skin samples compared

SMILES: CC(=O)Oc1ccccc1C(=O)O [Acetyl Salicylic Acid (Aspirin), Acetyl Salicylic Acid]
- Log D (pH 7.4) [1]: −1.89

SMILES: CN(C)CCCN1c2ccccc2Sc2ccc(Cl)cc21 [Chlorpromazine]
- Log P [2]: 5.203
- Aqueous Solubility, LogS [3]: −5.01
- Log D (pH 7.4) [1]: 3.22

SMILES: Clc1ccccc1C(c1ccccc1)(c1ccccc1)n1ccnc1 [Clotrimazole]
- Log P [2]: 6.1
- Aqueous Solubility, LogS [3]: −5.37
- diffusion (cumulative flux) across treated membrane relative to skin [4]: high degree of correlation with human skin

SMILES: C[C@@H]1C[C@H]2[C@@H]3CCC4=CC(=O)C=C[C@]4(C)[C@@]3(F)[C@@H](O)C[C@]2(C)[C@@]1(O)C(=O)CO [Dexamethasone]
- Log P [2]: 1.869
- Log P ([2]; listed as dexamethasone): 1.896
- Aqueous Solubility, LogS [3]: −3.89
- diffusion (cumulative flux) across treated membrane relative to skin [4]: diffusion similar to human and pig skin
- pKa [5]: 12.14

SMILES: O=C(O)Cc1ccccc1Nc1c(Cl)cccc1Cl [Diclofenac]
- Log P [2]: 4.05
- Log D (pH 7.4) [1]: 0.95

SMILES: O=C(O)c1ccccc1Nc1cccc(C(F)(F)F)c1 [Flufenamic Acid]
- Log P [2]: 5.2
- diffusion (cumulative flux) across untreated membrane relative to human skin [6]: better correlation to human skin than the treated membrane

SMILES: CC(C(=O)O)c1ccc(-c2ccccc2)c(F)c1 (stereo not shown) [Flurbiprofen]
- Log P [2]: 4.115
- Aqueous Solubility, LogS [3]: −4.49
- Log D (pH 7.4) [1]: 0.98

SMILES: C[C@]12CCC(=O)C=C1CC[C@@H]1[C@@H]2[C@@H](O)C[C@@]2(C)[C@H]1CC[C@]2(O)C(=O)CO [Hydrocortisone]
- Log P [2]: 1.462
- diffusion (cumulative flux) through rat skin [7]: does not appear to show a high degree of correlation with human skin
- pKa [5]: 12.48

SMILES: O=C(c1ccccc1)c1ccc2n1CCC2C(=O)O (stereo not shown) [Ketorolac]
- Aqueous Solubility, LogS [3]: −2.7

SMILES: COC(=O)c1ccc(O)cc1 [Methyl paraben, methyl p-hydroxybenzoate]
- diffusion (cumulative flux) through separate human skin samples [8]: high degree of variability between the different human skin samples

SMILES: CN1CCCC1c1cccnc1 (stereo not shown) [Nicotine]
- Log P [2]: 0.72
- Aqueous Solubility, LogS [3]: −0.24
- diffusion (cumulative flux) through rat skin [7]: variability between the rat and human skin samples
- Log D (pH 7.4) [1]: 0.02

SMILES: CCCCNc1ccc(C(=O)OCCN(C)C)cc1 [Tetracaine]
- Log P [2]: 3.649
- Aqueous Solubility, LogS [3]: −2.75
- Log D (pH 7.4) [1]: 2.75
- pKa [5]: 8.24

SMILES: Oc1cc(Cl)ccc1Oc1ccc(Cl)cc1Cl [Triclosan/Irgasan, Triclosan]
- Log P [2]: 4.76

SMILES: COc1cc(Cc2cnc(N)nc2N)cc(OC)c1OC [Trimethoprim]
- Aqueous Solubility, LogS [3]: −2.67
